The results in this text go back to PubChem BioAssay (NCI).

Some test systems named below: SK-MEL-5 melanoma; MDA-N; SK-MEL-28 melanoma; A549 NSCLC; NCI-H522 lung; SF-539 CNS; HS 578T breast; SK-OV-3 ovarian; SW-620 colon; PC-3 prostate; COLO 205 colon; HT29 colon; SNB-75 CNS; TK-10 renal; OVCAR-5 ovarian; UACC-257 melanoma; HOP-62 NSCLC; HCC-2998 colon; SNB-19 CNS; CAKI-1 renal.
Test in all cases: growth of human tumour cells (NCI), 48 h

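Tested at 5 concentrations; 48 h exposure; 96-well plates; endpoints linearly interpolated, else capped at highest concentration. TGI: concentration producing complete growth inhibition.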

For `COC1=C2CC(C)CC(OC)[C@@H](OC(=O)CCN)[C@H](C)/C=C(\C)C(OC(N)=O)C(OC)/C=C\C=C(/C)C(=O)NC(=CC1=O)C2=O` (stereo not given in full), the TGI with SK-MEL-5 melanoma is 15.2 µM; in the assay on MDA-N, 12.7 µM; in the assay on SK-MEL-28 melanoma, 5.22 µM; in the assay on A549 NSCLC, 29.2 µM; in the assay with NCI-H522 lung, 0.658 µM; in the assay on SF-539 CNS it was 14.9 µM. Also, the TGI is 16.9 µM with HS 578T breast; 25.4 µM in the assay on SK-OV-3 ovarian; 1.48 µM in the assay with SW-620 colon; 15.1 µM in the assay with PC-3 prostate; 0.964 µM in the assay with COLO 205 colon; 13.1 µM in the assay on HT29 colon. For the same compound, the TGI was 35.1 µM in the assay on SNB-75 CNS; 20.4 µM with TK-10 renal; 21.1 µM in the assay with OVCAR-5 ovarian; 2.82 µM with UACC-257 melanoma; 15.4 µM with HOP-62 NSCLC; 5.69 µM in the assay on HCC-2998 colon. The values for the TGI with SNB-19 CNS and with CAKI-1 renal were 20.4 µM and 17.7 µM, respectively.

Consider `CCOc1ccc(N=NC2C(=O)N(C(=O)CC(=O)Nc3ccccc3OC)N=C2C)cc1` (stereo not given), for which the TGI in the assay with SK-MEL-5 melanoma was more than 100 µM; in the assay on MDA-N it was 6.14 µM; with SK-MEL-28 melanoma it was more than 100 µM; with A549 NSCLC, more than 100 µM; in the assay on NCI-H522 lung, 55.3 µM; with SF-539 CNS, more than 57.9 µM. In addition, the TGI is more than 100 µM in the assay with HS 578T breast; more than 87.4 µM in the assay with SK-OV-3 ovarian; 52.9 µM with SW-620 colon; more than 100 µM in the assay on PC-3 prostate; more than 100 µM in the assay on COLO 205 colon; more than 100 µM in the assay on HT29 colon. The TGI was 23.6 µM in the assay with SNB-75 CNS; more than 52.3 µM in the assay on TK-10 renal; more than 100 µM in the assay on OVCAR-5 ovarian; more than 100 µM in the assay with UACC-257 melanoma; more than 49.5 µM in the assay on HOP-62 NSCLC; more than 60.3 µM in the assay on HCC-2998 colon. The figures for the TGI in the assay on SNB-19 CNS and in the assay with CAKI-1 renal were more than 34.8 µM and more than 64.7 µM, respectively.

Consider `CSc1c(C(=O)Nc2ccc(Cl)cc2)c(N)nn1-c1ccccc1`, for which the TGI in the assay on SK-MEL-5 melanoma, with MDA-N, in the assay with SK-MEL-28 melanoma, with A549 NSCLC, in the assay with NCI-H522 lung and in the assay with SF-539 CNS was more than 100 µM throughout. Besides, the TGI with HS 578T breast, in the assay with SK-OV-3 ovarian, in the assay on SW-620 colon, in the assay with PC-3 prostate, in the assay on COLO 205 colon and with HT29 colon was more than 100 µM in each case. Moreover, the TGI is more than 86.3 µM in the assay with SNB-75 CNS; more than 100 µM in the assay with TK-10 renal; more than 100 µM in the assay on OVCAR-5 ovarian; more than 100 µM in the assay on UACC-257 melanoma; more than 100 µM with HOP-62 NSCLC; more than 100 µM in the assay with HCC-2998 colon. Further, the TGI in the assay with SNB-19 CNS and in the assay on CAKI-1 renal was more than 100 µM each time.

`O=C(/C=C(\O)c1ccc(Cl)cc1)C(=O)N=Nc1c(O)[nH]c2ccc(Br)cc12`: the TGI in the assay with SK-MEL-5 melanoma, in the assay with MDA-N, with SK-MEL-28 melanoma, in the assay on A549 NSCLC, in the assay with NCI-H522 lung and in the assay on SF-539 CNS was more than 100 µM each time. Moreover, the TGI with HS 578T breast, in the assay on SK-OV-3 ovarian, in the assay with SW-620 colon, in the assay on PC-3 prostate, with COLO 205 colon and in the assay with HT29 colon was more than 100 µM in each case. For the same compound, the TGI in the assay with SNB-75 CNS, with TK-10 renal, in the assay on OVCAR-5 ovarian, with UACC-257 melanoma, in the assay on HOP-62 NSCLC and in the assay on HCC-2998 colon was more than 100 µM in each case. Moreover, the TGI with SNB-19 CNS and with CAKI-1 renal was more than 100 µM each time.

For `COc1ccccc1C1SCC(=O)N1c1ccc(-n2c(-c3ccccc3)nc3ccccc3c2=O)cc1` (stereo not given), the TGI in the assay on SK-MEL-5 melanoma, with MDA-N, in the assay on SK-MEL-28 melanoma, in the assay on A549 NSCLC, in the assay with NCI-H522 lung and with SF-539 CNS was more than 100 µM in each case. The TGI with HS 578T breast, in the assay on SK-OV-3 ovarian, in the assay with SW-620 colon, with PC-3 prostate, in the assay on COLO 205 colon and in the assay with HT29 colon was more than 100 µM throughout. For the same compound, the TGI in the assay with SNB-75 CNS was 43.1 µM; in the assay on TK-10 renal, more than 100 µM; with OVCAR-5 ovarian, more than 100 µM; with UACC-257 melanoma, more than 100 µM; in the assay with HOP-62 NSCLC, more than 100 µM; with HCC-2998 colon it was more than 100 µM. Further, the TGI with SNB-19 CNS and with CAKI-1 renal was more than 100 µM in each case.

In the case of `COC(OC)C1OC(CO)C(n2cc(C)c(=O)[nH]c2=O)C1O` (stereo not given), the TGI with SK-MEL-5 melanoma, in the assay on MDA-N, with SK-MEL-28 melanoma, with A549 NSCLC, with NCI-H522 lung and in the assay on SF-539 CNS was more than 100 µM each time. The TGI in the assay on HS 578T breast, in the assay on SK-OV-3 ovarian, in the assay on SW-620 colon, in the assay on PC-3 prostate, with COLO 205 colon and in the assay with HT29 colon was more than 100 µM each time. For the same compound, the TGI with SNB-75 CNS, in the assay on TK-10 renal, in the assay on OVCAR-5 ovarian, in the assay on UACC-257 melanoma, in the assay with HOP-62 NSCLC and with HCC-2998 colon was more than 100 µM throughout. The TGI in the assay on SNB-19 CNS and in the assay with CAKI-1 renal was more than 100 µM each time.
